In brackets after ≈: the same amount, converted by molar mass. Read-outs that look alike come from different tables or passages of the source.
What was measured:
[1] = test system: L. donovani promastigotes; assay: Dose-dependent anti-promastigote activity, IC50 and IC90; format: cell-based, Leishmania donovani; details: Leishmania donovani, 72 h; for IC50: read-out: L. donovani promastigotes IC50 ± SEM; for IC90: read-out: L. donovani promastigotes IC90 ± SEM
Procedure: L. donovani parasites (MHOM/IN/83/AG83) were maintained in vivo in BALB/c mice. Promastigotes were routinely cultured at 22°C in medium M199 supplemented with 10% heat inactivated fetal bovine serum (FBS, HiMedia Laboratories, Mumbai, India), penicillin 100 (IU/ml), streptomycin (100 μg/ml). Log phase promastigotes were sub-cultured every 72–96 h, the inoculum being 2 × 10^6 cells/ml (Afrin et al., [2002]).
AmB was used as a standard antileishmanial drug control. The cell viability was evaluated by microscopically and the mean percentage viability was calculated as follows: Mean cell number of treated parasites / Mean cell number of untreated parasites × 100. The 50 and 90% inhibitory concentration (IC50 and IC90) i.e., the concentration of drugs that decreased the cell growth by 50 and 90% respectively was determined by graphical extrapolation after plotting the graph of % viability vs. concentration of drug (Islamuddin et al., [2014b]).
In vitro antileishmanial activity was expressed as IC50 by linear regression analysis. Values are mean ± SE of samples in triplicate from at least three independent experiments. Statistical analysis was performed using ANOVA followed by Dunnett's test. ^*P < 0.05, ^**P < 0.01 and ^***P < 0.001 compared with the untreated control group were considered significant.

[2] = test system: Aspergillus fumigatus ATCC 16424; assay: Broth microdilution antifungal susceptibility (MIC/MFC); format: cell-based; details: for MIC / MFC: Aspergillus fumigatus; for MIC: ATCC16424, 48 h
Method in brief: (§1)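 CLSI broth microdilution: Ca/Mg-supplemented Mueller-Hinton for bacteria (~5 × 10^5 CFU/mL, 24 h), MOPS-buffered RPMI 1640 pH 7.0 for fungi (Candida ~2.5 × 10^4, Aspergillus 0.4-5 × 10^4 CFU/mL, 48 h), 35°C, 1% DMSO, 64 to 0.12 μg/mL. MIC read visually; MBC/MFC by plating clear wells.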

[3] = test system: Aspergillus niger ATCC 16404; assay: as above; format: cell-based; details: for MIC / MFC: Aspergillus niger; for MIC: ATCC16404, 48 h
Method in brief: as §1

[4] = test system: Candida glabrata ATCC 90030; assay: as above; format: cell-based; details: for MIC / MFC: Nakaseomyces glabratus; for MIC: ATCC90030, 48 h
Method in brief: as §1

[5] = test system: Candida albicans ATCC 90028; assay: as above; format: cell-based; details: for MIC / MFC: Candida albicans; for MIC: ATCC90028, 48 h
Method in brief: as §1

[6] = test system: L. donovani promastigotes; assay: Anti-leishmanial screening at 100 μM, parasite viability by microscopy; format: cell-based, Leishmania donovani; details: 100 μM, 72 h, phase contrast microscope
Method in brief: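 Promastigotes (MHOM/IN/83/AG83) at 2 × 10^6 cells/mL in M199 with 10% FBS exposed to compound at 100 μM for 72 h at 22°C. Viability assessed microscopically; 0.2% DMSO solvent control, amphotericin B reference.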

[7] = read-out: MIC, Af ATCC 16424, broth microdilution, 35°C, 48 h
[8] = ATCC16424, read-out: MFC, Af ATCC 16424
[9] = broth microdilution, 35°C, 48 h
[10] = read-out: MIC, An ATCC 16404, broth microdilution, 35°C, 48 h
[11] = ATCC16404, read-out: MFC, An ATCC 16404
[12] = read-out: MIC, Cg ATCC 90030, broth microdilution, 35°C, 48 h
[13] = ATCC90030, read-out: MFC, Cg ATCC 90030
[14] = read-out: MIC, Ca ATCC 90028, broth microdilution, 35°C, 48 h
[15] = ATCC90028, read-out: MFC, Ca ATCC 90028
[16] = 22°C, mean from three determinations
[17] = broth microdilution, 35°C, 48 h, read-out: MIC, Af ATCC 16424
[18] = ATCC16424, ≥99.9% reduction of original inoculum, read-out: MFC, Af ATCC 16424
[19] = broth microdilution, 35°C, 48 h, read-out: MIC, An ATCC 16404
[20] = ATCC16404, ≥99.9% reduction of original inoculum, read-out: MFC, An ATCC 16404
[21] = ATCC90030, ≥99.9% reduction of original inoculum, read-out: MFC, Cg ATCC 90030
[22] = ATCC90028, ≥99.9% reduction of original inoculum, read-out: MFC, Ca ATCC 90028

CC/C(=C\c1ccc([N+](=O)[O-])cc1)[N+](=O)[O-] [Compound 9, 1-nitro-4-((E)-2-nitrobut-1-enyl) benzene]
IC50 [1]: 23.4 ± 0.71 nM | IC90 [1]: 90.2 ± 1.11 nM | MIC [2, 7]: 4 to 8 µg/mL (≈ 18 to 36 µM) | MFC [2, 8]: 8 µg/mL (≈ 36 µM) | MIC, Af ATCC 16424 [2, 9]: 8 µg/mL (≈ 36 µM) | MIC [3, 10]: 2 to 4 µg/mL (≈ 9 to 18 µM) | MFC [3, 11]: 4 µg/mL (≈ 18 µM) | MIC, An ATCC 16404 [3, 9]: 4 µg/mL (≈ 18 µM) | MIC [4, 12]: 0.25 to 16 µg/mL (≈ 1.13 to 72 µM) | MFC [4, 13]: 0.25 µg/mL (≈ 1.13 µM) | MIC, Cg ATCC 90030 [4, 9]: 0.25 µg/mL (≈ 1.13 µM) | MIC [5, 14]: 4 to 32 µg/mL (≈ 18 to 144 µM) | MFC [5, 15]: 8 µg/mL (≈ 36 µM) | MIC, Ca ATCC 90028 [5, 9]: 8 µg/mL (≈ 36 µM) | Parasite viability after treatment [6]: All the parasites were found to be dead

CC/C(=C\c1cccc([N+](=O)[O-])c1)[N+](=O)[O-] [Compound 12, 1-nitro-3-((E)-2-nitrobut-1-enyl) benzene]
IC50 [1]: 37.8 ± 3.74 nM | IC90 [1]: 86.46 ± 0.21 nM | MIC [2, 7]: 1 µg/mL (≈ 4.5 µM) | MFC [2, 8]: 1 µg/mL (≈ 4.5 µM) | MIC [3, 10]: 0.5 µg/mL (≈ 2.25 µM) | MFC [3, 11]: 0.5 µg/mL (≈ 2.25 µM) | MIC [4, 12]: 0.25 µg/mL (≈ 1.13 µM) | MFC [4, 13]: 0.25 µg/mL (≈ 1.13 µM) | MIC [5, 14]: 2 µg/mL (≈ 9 µM) | MFC [5, 15]: 2 µg/mL (≈ 9 µM) | Parasite viability after treatment [6]: All the parasites were found to be dead

COc1ccc(/C=C(\C)[N+](=O)[O-])cc1 [Compound 14, 1-methoxy-4-((E)-2-nitroprop-1-enyl) benzene]
IC50 [1, 16]: 40.5 ± 1.47 nM | IC90 [1, 16]: 89 ± 0.52 nM | MIC [2, 17]: 8 µg/mL (≈ 41.4 µM) | MFC [2, 18]: 8 µg/mL (≈ 41.4 µM) | MIC [3, 19]: 4 µg/mL (≈ 20.7 µM) | MFC [3, 20]: 4 µg/mL (≈ 20.7 µM) | MIC ([4]; broth microdilution, 35°C, 48 h, read-out: MIC, Cg ATCC 90030): 8 µg/mL (≈ 41.4 µM) | MFC [4, 21]: 8 µg/mL (≈ 41.4 µM) | MIC ([5]; broth microdilution, 35°C, 48 h, read-out: MIC, Ca ATCC 90028): 32 µg/mL (≈ 166 µM) | MFC [5, 22]: 32 µg/mL (≈ 166 µM) | Parasite viability after treatment [6]: All the parasites were found to be dead

CC/C(=C\c1ccc(O)cc1)[N+](=O)[O-] [Compound 18, 4-((E)-2-nitrobut-1-enyl) phenol]
IC50 [1, 16]: 55.7 ± 2.84 nM | IC90 [1, 16]: 320 ± 3.65 nM | MIC [2, 17]: 4 to 8 µg/mL (≈ 20.7 to 41.4 µM) | MFC [2, 18]: 16 µg/mL (≈ 82.8 µM) | MIC, Af ATCC 16424 [2, 9]: 8 µg/mL (≈ 41.4 µM) | MIC [3, 19]: 2 to 4 µg/mL (≈ 10.4 to 20.7 µM) | MFC [3, 20]: 8 µg/mL (≈ 41.4 µM) | MIC, An ATCC 16404 [3, 9]: 4 µg/mL (≈ 20.7 µM) | MFC [4, 21]: 8 µg/mL (≈ 41.4 µM) | MFC [5, 22]: 16 µg/mL (≈ 82.8 µM) | Parasite viability after treatment [6]: All the parasites were found to be dead
